Laboratory results: ChEMBL document CHEMBL5506003, “Design and biological evaluation of dual tubulin/HDAC inhibitors based on millepachine for treatment of prostate cancer” (Eur J Med Chem, 2024)
Activity calls are given as the source filed them. The rule behind the calls is not given here.

Legend:
PC-3 [1] = test: Induction of apoptosis in human PC-3 cells assessed as early apoptotic cells at 0.32 uM incubated for 24 hrs by Annexin V-FITC and PI staining based flow cytometry (reference value: 1.32%); format: functional
PC-3 [2] = test: Induction of apoptosis in human PC-3 cells assessed as downregulation of Bim expression at 0.08 to 0.32 uM by Western blotting analysis; format: functional, cell-based; details: dose 0.08-0.32 µM
PC-3 [3] = test: Induction of apoptosis in human PC-3 cells assessed as early apoptotic cells at 0.08 uM incubated for 24 hrs by Annexin V-FITC and PI staining based flow cytometry (reference value: 1.32%); format: functional
[4] = Toxicity in BALB/c nude mouse xenografted with human PC-3 cells assessed as spleen damage at 10 to 20 mg/kg, iv administered every 2 days and measured after 3 weeks; format: organism-based; details: in vivo, 504 h, dose 10-20 mg/kg
[5] = target: T1, Protein deacetylase HDAC6 (Homo sapiens) (UniProt Q9UBN7); test: Inhibition of HDAC6 in human PC-3 cells assessed as increase in acetylated alpha-tubulin level incubated for 24 hrs by Western blotting assay; format: cell-based; details: dose 0.08-0.32 µM
T1 sequence (whole entry): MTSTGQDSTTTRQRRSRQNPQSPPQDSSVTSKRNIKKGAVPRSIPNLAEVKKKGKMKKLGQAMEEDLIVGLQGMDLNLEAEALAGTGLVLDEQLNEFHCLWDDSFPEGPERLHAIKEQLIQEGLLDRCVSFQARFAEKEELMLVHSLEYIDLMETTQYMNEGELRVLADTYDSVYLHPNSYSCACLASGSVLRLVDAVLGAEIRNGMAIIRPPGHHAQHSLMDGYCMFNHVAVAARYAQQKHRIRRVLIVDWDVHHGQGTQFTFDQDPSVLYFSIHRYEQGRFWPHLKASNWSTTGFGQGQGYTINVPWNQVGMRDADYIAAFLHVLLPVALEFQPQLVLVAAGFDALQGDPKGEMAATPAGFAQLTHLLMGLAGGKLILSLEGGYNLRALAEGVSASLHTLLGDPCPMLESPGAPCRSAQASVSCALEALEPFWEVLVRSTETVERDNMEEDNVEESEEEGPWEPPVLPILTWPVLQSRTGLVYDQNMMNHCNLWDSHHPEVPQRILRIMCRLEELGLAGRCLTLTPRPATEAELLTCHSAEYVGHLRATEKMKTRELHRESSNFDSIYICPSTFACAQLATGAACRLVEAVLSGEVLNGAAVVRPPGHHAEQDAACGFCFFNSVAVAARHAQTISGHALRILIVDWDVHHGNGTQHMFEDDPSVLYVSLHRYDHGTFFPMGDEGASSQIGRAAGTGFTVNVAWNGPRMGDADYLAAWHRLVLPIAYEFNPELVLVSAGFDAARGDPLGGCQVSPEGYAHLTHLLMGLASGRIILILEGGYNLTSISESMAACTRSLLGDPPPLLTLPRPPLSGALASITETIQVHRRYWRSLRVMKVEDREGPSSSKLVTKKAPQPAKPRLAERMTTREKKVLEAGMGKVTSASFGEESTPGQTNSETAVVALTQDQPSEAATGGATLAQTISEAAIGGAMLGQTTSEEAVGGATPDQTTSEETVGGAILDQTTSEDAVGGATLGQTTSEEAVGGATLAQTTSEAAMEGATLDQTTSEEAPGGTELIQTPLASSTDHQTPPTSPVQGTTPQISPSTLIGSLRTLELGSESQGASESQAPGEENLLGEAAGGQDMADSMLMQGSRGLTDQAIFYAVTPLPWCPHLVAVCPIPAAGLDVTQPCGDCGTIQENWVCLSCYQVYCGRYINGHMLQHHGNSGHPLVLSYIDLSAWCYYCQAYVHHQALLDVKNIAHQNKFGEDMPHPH

PC-3 [6] = test: Induction of apoptosis in human PC-3 cells assessed as viable cells at 0.16 uM incubated for 24 hrs by Annexin V-FITC and PI staining based flow cytometry (reference value: 97.5%); format: functional; details: read-out: Activity
PC-3 [7] = test: Inhibition of colony formation in human PC-3 cells at 40 nM incubated for 24 hrs followed by replacement with fresh media and measured after 2 weeks by crystal violet staining based assay; format: functional
PC-3 [8] = test: Induction of apoptosis in human PC-3 cells assessed as necrotic cells at 0.32 uM incubated for 24 hrs by Annexin V-FITC and PI staining based flow cytometry (reference value: 0.13%); format: functional
[9] = MRT(0 to t) in Sprague-Dawley rat at 2 mg/kg, iv measured upto 24 hrs by HPLC-MS analysis; format: ADME, organism-based; details: in vivo
Histone deacetylase 2 = Histone deacetylase 2 (Homo sapiens, UniProt Q92769); test: Inhibition of HDAC2 in human HeLa nuclear extracts incubated for 30 mins by fluorescence based assay; format: cell-based
A549 [10] = test: Cytotoxicity against human A549 cells incubated for 72 hrs by MTT assay; details: A549, 72 h
A549 [11] = test: Inhibition of cell migration in human A549 cells incubated for 24 hrs by scratch wound healing method; format: functional, cell-based; details: dose 0.4-1.6 µM
U-251 = test: Cytotoxicity against human U-251 cells incubated for 72 hrs by MTT assay; details: U-251, 72 h
MDA-MB-231 = test: Cytotoxicity against human MDA-MB-231 cells incubated for 72 hrs by MTT assay; format: functional, cell-based; details: MDA-MB-231, 72 h
PC-3 [12] = test: Induction of cell cycle arrest in human PC-3 cells assessed as decrease in phosphorylated Cdc2 at […] by Western blotting analysis; format: functional, cell-based; details: dose 0.08-0.32 µM
[13] = Clearance in Sprague-Dawley rat at 2 mg/kg, iv measured upto 24 hrs by HPLC-MS analysis; format: ADME, organism-based; details: in vivo
[14] = target: Histone deacetylase 3 (Homo sapiens) (UniProt O15379); test: Inhibition of HDAC3 in human PC-3 cells assessed as increase in acetylated Histone-H3 level incubated for 24 hrs by Western blotting assay; format: cell-based; details: dose 0.08-0.32 µM
MCF7 = test: Cytotoxicity against human MCF7 cells incubated for 72 hrs by MTT assay; details: MCF7, 72 h
PC-3 [15] = test: Induction of mitochondrial membrane potential loss in human PC-3 cells assessed as increase in monomer JC-1 level by measuring green fluorescence intensity at 0.32 uM incubated for 24 hrs by JC-1 staining based flow cytometry analysis (reference value: 6.44%); format: functional
PC-3 [16] = test: Induction of apoptosis in human PC-3 cells assessed as late apoptotic cells at 0.08 uM incubated for 24 hrs by Annexin V-FITC and PI staining based flow cytometry (reference value: 1.02%); format: functional

Histone deacetylase 3 (Homo sapiens), sequence (O15379 whole entry): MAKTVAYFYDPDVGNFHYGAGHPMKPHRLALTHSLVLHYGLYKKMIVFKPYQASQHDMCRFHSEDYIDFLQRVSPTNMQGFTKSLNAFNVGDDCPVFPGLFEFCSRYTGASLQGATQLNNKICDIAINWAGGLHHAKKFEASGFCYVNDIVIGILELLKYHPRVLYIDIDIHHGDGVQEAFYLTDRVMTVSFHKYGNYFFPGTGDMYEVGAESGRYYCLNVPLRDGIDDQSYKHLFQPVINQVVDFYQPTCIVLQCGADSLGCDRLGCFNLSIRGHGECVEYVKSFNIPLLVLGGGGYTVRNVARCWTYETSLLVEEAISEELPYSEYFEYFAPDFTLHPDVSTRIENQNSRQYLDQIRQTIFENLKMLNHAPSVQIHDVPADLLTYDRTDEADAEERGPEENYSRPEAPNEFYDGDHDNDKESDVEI
Histone deacetylase 2, sequence (Q92769 whole entry): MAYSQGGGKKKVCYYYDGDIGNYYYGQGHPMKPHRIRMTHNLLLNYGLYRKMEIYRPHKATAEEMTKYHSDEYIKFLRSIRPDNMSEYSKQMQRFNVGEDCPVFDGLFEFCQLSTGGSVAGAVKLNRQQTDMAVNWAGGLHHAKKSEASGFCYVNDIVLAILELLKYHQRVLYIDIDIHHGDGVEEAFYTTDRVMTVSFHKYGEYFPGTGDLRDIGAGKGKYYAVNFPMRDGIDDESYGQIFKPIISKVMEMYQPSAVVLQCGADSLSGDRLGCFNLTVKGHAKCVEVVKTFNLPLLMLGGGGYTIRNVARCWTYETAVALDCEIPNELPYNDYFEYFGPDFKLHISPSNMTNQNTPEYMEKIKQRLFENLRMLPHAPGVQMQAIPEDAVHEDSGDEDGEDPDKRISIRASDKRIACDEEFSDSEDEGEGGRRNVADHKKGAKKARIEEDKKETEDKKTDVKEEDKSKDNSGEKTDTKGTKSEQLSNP

inhibition [5]: Dose-Dependent Effect
MRT last at 24 h [9]: 1.32 h
IC50 (Histone deacetylase 2): 430 nM
clearance [13]: 5 mL/min/kg
inhibition [14]: Dose-Dependent Effect
Compound: COc1ccc(/C=C/C(=O)c2ccc(OC)c3c2OC(C)(C)C=C3)cc1NCC(=O)NO
Activity (PC-3 [1]): 63.8%
Activity (PC-3 [2]): Active
Activity (PC-3 [3]): 2.52%
Activity [4]: Non-Toxic
viability at 0.16 µM (PC-3 [6]): 78.8%
inhibition at 0.04 µM (PC-3 [7]): 100%
Activity (PC-3 [8]): 0.19%
IC50 (A549 [10]): 290 nM
inhibition (A549 [11]): Dose-Dependent Effect
IC50 (U-251): 150 nM
IC50 (MDA-MB-231): 340 nM
Activity (PC-3 [12]): Active
IC50 (MCF7): 160 nM
Activity (PC-3 [15]): 38.8%
Activity (PC-3 [16]): 2.59%
